{"source": "ChEMBL document CHEMBL1133104", "about": "“Polyether mimics of naturally occurring cytotoxic annonaceous acetogenins” (2000)", "assay_type_in_all_cases": "functional, Homo sapiens", "key": {"K562 [1]": {"test_system": "K562", "assay": "Compound at 10 uM was tested in vitro to inhibit proliferation of K562 leukemia cell line"}, "HL-60 [2]": {"test_system": "HL-60", "assay": "Compound at 100 uM was tested in vitro to inhibit proliferation of HL-60 leukemia cell line"}, "K562 [3]": {"test_system": "K562", "assay": "Compound at 100 uM was tested in vitro to inhibit proliferation of K562 leukemia cell line"}, "HL-60 [4]": {"test_system": "HL-60", "assay": "Compound at 10 uM was tested in vitro to inhibit proliferation of HL-60 leukemia cell line"}, "K562 [5]": {"test_system": "K562", "assay": "Compound at 1 uM was tested in vitro to inhibit proliferation of K562 leukemia cell line"}, "HL-60 [6]": {"test_system": "HL-60", "assay": "Compound at 1 uM was tested in vitro to inhibit proliferation of HL-60 leukemia cell line"}}}
{"smiles": "CCCCCCCCCCCC[C@@H](O)[C@H]1CCC([C@H](O)CCCCC(=O)CCCCCCCC2=C[C@H](C)OC2=O)O1", "note": "(stereo partly specified)", "values": [{"measurement": "IG", "setting": "K562 [1]", "value": 16, "unit": "%"}, {"measurement": "IG", "setting": "HL-60 [2]", "value": 68, "unit": "%"}, {"measurement": "IG", "setting": "K562 [3]", "value": 53, "unit": "%"}, {"measurement": "IG", "setting": "HL-60 [4]", "value": 29, "unit": "%"}, {"measurement": "IG", "setting": "K562 [5]", "value": 2, "unit": "%"}, {"measurement": "IG", "setting": "HL-60 [6]", "value": 0, "unit": "%"}]}
{"smiles": "CCCCCCCCCCOCCOCCOCCOCCCCC(O)CCCCCCCC1=C[C@H](C)OC1=O", "note": "(stereo partly specified)", "values": [{"measurement": "IG", "setting": "K562 [1]", "value": 25, "unit": "%"}, {"measurement": "IG", "setting": "HL-60 [2]", "value": 100, "unit": "%"}, {"measurement": "IG", "setting": "K562 [3]", "value": 55, "unit": "%"}, {"measurement": "IG", "setting": "HL-60 [4]", "value": 65, "unit": "%"}, {"measurement": "IG", "setting": "K562 [5]", "value": 22, "unit": "%"}, {"measurement": "IG", "setting": "HL-60 [6]", "value": 21, "unit": "%"}]}
{"smiles": "CCCCCCCCCCCOCCOCCOCCCCC(O)CCCCCCCC1=C[C@H](C)OC1=O", "note": "(stereo partly specified)", "values": [{"measurement": "IG", "setting": "K562 [1]", "value": 18, "unit": "%"}, {"measurement": "IG", "setting": "HL-60 [2]", "value": 100, "unit": "%"}, {"measurement": "IG", "setting": "K562 [3]", "value": 31, "unit": "%"}, {"measurement": "IG", "setting": "HL-60 [4]", "value": 50, "unit": "%"}, {"measurement": "IG", "setting": "K562 [5]", "value": 0, "unit": "%"}, {"measurement": "IG", "setting": "HL-60 [6]", "value": 0, "unit": "%"}]}
{"smiles": "CCCCCCCCCCCC[C@@H](O)[C@H]1CCC([C@H](O)CCCCC(O)CCCCCCCC2=C[C@H](C)OC2=O)O1", "note": "(mixture of isomers)", "values": [{"measurement": "IG", "setting": "K562 [1]", "value": 2, "unit": "%"}, {"measurement": "IG", "setting": "HL-60 [2]", "value": 63, "unit": "%"}, {"measurement": "IG", "setting": "K562 [3]", "value": 10, "unit": "%"}, {"measurement": "IG", "setting": "HL-60 [4]", "value": 56, "unit": "%"}, {"measurement": "IG", "setting": "K562 [5]", "value": 0, "unit": "%"}, {"measurement": "IG", "setting": "HL-60 [6]", "value": 5, "unit": "%"}]}
{"smiles": "CCCCCCCCCC[C@@H](O)[C@@H]1CC[C@@H]([C@@H]2CC[C@@H]([C@H](O)CCCCCCCCCC(O)CC3=CC(C)OC3=O)O2)O1", "note": "(stereo partly specified) [BULLATACIN]", "values": [{"measurement": "IG", "setting": "K562 [1]", "value": 39, "unit": "%"}, {"measurement": "IG", "setting": "HL-60 [2]", "value": 73, "unit": "%"}, {"measurement": "IG", "setting": "K562 [3]", "value": 53, "unit": "%"}, {"measurement": "IG", "setting": "HL-60 [4]", "value": 7, "unit": "%"}, {"measurement": "IG", "setting": "K562 [5]", "value": 27, "unit": "%"}, {"measurement": "IG", "setting": "HL-60 [6]", "value": 0, "unit": "%"}]}
{"smiles": "CCCCCCCCCCCC[C@@H](O)[C@H]1CC[C@H]([C@H](O)CCCCCCCCCCCCC2=C[C@H](C)OC2=O)O1", "note": "[REL-SOLAMIN]", "values": [{"measurement": "IG", "setting": "K562 [1]", "value": 39, "unit": "%"}, {"measurement": "IG", "setting": "HL-60 [2]", "value": 24, "unit": "%"}, {"measurement": "IG", "setting": "K562 [3]", "value": 59, "unit": "%"}, {"measurement": "IG", "setting": "HL-60 [4]", "value": 8, "unit": "%"}, {"measurement": "IG", "setting": "K562 [5]", "value": 29, "unit": "%"}, {"measurement": "IG", "setting": "HL-60 [6]", "value": 0, "unit": "%"}]}
